Values of other authors in US20080009496A1, “MUTAGENIC HETEROCYCLES” (Koronis Pharmaceuticals, Inc., priority 2003, published 2008).

Assays:
HIV = details: in vitro
[1] = deamination product of 5-aza-dC

## Nc1ncn([C@H]2C[C@H](O)[C@@H](CO)O2)c(=O)n1 [5-aza-dC, 5-aza-2′-deoxycytidine]
HIV
  inhibition of HIV replication: inhibit HIV replication in vitro

## O=c1ncn([C@H]2C[C@H](O)[C@@H](CO)O2)c(=O)[nH]1 [5-aza-dU, 5-aza-2′-deoxyuridine]
[1]
  antineoplastic activity: loss of antineoplastic activity
